{"source": "patent US8415351B2", "about": "(priority 2007, dated 2013)", "key": {"[1]": {"tested_on": "genotype 1b-Con1 subgenomic replicon cell line", "test": "microbe, parasite or virus in culture", "assay_type": "cell-based, HCV", "settings": "Hepatitis C virus, read-out: EC50 1b"}, "[2]": {"biological_target": "T1, HCV polymerase 1B (Δ21 NS5B, BK) (Hepatitis C virus genotype 1b, UniProt P26663)", "T1 construct": "20 to 50 nM Δ21 NS5B", "T1 sequence (P26663 2420-2989, stated change not applied)": "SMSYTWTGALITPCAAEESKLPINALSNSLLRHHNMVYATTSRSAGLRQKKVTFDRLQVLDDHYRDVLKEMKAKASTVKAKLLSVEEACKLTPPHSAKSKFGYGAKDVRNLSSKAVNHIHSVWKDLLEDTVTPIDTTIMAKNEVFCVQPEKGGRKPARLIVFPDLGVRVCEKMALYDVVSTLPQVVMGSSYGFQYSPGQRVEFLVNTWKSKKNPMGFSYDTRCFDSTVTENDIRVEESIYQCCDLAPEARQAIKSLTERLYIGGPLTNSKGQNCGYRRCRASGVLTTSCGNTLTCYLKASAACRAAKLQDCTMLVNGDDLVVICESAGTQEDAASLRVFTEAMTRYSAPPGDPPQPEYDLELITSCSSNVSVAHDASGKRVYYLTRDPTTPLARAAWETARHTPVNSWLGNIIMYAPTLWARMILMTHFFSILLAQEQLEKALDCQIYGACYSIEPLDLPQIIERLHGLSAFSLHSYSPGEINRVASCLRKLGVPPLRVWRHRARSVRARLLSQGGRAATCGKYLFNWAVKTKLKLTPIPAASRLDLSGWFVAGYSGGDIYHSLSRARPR", "test": "biochemical", "method_in_brief": "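Δ21 NS5B (genotype 1b, BK […]) preincubated 15 min RT with inhibitor, 2 mM MnCl2, pH 7.4, 60–125 μM GTP; started with 20 μM CTP/ATP, 1 μM 3H-UTP, 5 nM template RNA, run 2–4 h RT. Spermine-precipitated RNA filter-captured, scintillation counted; IC50 from tight-binding (Morrison) fit.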"}, "[3]": {"biological_target": "T2, HCV polymerase 1A (Δ21 NS5B, H77) (Hepatitis C virus genotype 1a, UniProt P27958)", "T2 construct": "20 to 50 nM Δ21 NS5B", "T2 sequence (P27958 2421-2990, stated change not applied)": "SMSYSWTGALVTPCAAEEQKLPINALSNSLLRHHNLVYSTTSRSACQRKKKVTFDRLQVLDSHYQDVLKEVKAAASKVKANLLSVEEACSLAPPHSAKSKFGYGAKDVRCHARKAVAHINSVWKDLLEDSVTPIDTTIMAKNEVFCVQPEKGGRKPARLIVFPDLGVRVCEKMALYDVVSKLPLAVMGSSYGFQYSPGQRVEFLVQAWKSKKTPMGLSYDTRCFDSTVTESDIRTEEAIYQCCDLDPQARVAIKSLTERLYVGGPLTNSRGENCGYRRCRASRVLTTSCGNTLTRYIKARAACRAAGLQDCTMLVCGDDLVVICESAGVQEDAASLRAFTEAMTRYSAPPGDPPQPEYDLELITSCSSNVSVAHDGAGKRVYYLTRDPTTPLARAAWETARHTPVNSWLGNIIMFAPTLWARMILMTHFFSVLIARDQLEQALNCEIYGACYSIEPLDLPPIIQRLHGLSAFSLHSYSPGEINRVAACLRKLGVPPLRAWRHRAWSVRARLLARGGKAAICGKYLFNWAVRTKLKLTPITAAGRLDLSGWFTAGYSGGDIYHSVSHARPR", "test": "biochemical", "settings": "IC50 1a", "method_in_brief": "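Radiometric assay with Δ21 NS5B (H77): 20 μM CTP, 20 μM ATP, 1 μM ^3H-UTP, 5 nM template RNA, 2–4 h at room temperature. RNA precipitated with spermine, filter-captured and counted. IC50 from non-linear fit of retained cpm vs inhibitor concentration (tight-binding equation).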"}}, "note": "Where a name gives a salt, the structure may show the parent alone."}
{"smiles": "CC(C)(C)c1cc(N2CCC(=O)NC2=O)cc(C(=O)Nc2ccc(NS(=O)(=O)CCN3CCOCC3)cc2)c1O", "note": "[IA-L3-1.14, 3-tert-butyl-5-(2,4-dioxotetrahydropyrimidin-1(2H)-yl)-2-hydroxy-N-(4-(2-morpholinoethylsulfonamido)phenyl)benzamide]", "values": [{"measurement": "EC50", "setting": "[1]", "result": "100 to 1000", "unit": "nM"}, {"measurement": "IC50", "setting": "[2]", "result": "< 10", "unit": "nM"}, {"measurement": "IC50", "setting": "[3]", "result": "10 to 100", "unit": "nM"}]}
{"smiles": "COCCS(=O)(=O)Nc1ccc(NC(=O)c2cc(N3CCC(=O)NC3=O)cc(C(C)(C)C)c2OC)cc1", "note": "[IA-L3-1.54, 3-tert-butyl-5-(2,4-dioxotetrahydropyrimidin-1(2H)-yl)-2-methoxy-N-(4-(2-methoxyethylsulfonamido)phenyl)benzamide]", "values": [{"measurement": "EC50", "setting": "[1]", "result": "10 to 100", "unit": "nM"}, {"measurement": "IC50", "setting": "[2]", "result": "100 to 1000", "unit": "nM"}, {"measurement": "IC50", "setting": "[3]", "result": "10 to 100", "unit": "nM"}]}
{"smiles": "COc1c(C(=O)Nc2ccc(NS(=O)(=O)CCN(CCO)CCO)cc2)cc(N2CCC(=O)NC2=O)cc1C(C)(C)C", "note": "[IA-L3-1.56, N-(4-(2-(bis(2-hydroxyethyl)amino)ethylsulfonamido)phenyl)-3-tert-butyl-5-(2,4-dioxo-tetrahydropyrimidin-1(2H)-yl)-2-methoxybenzamide]", "values": [{"measurement": "EC50", "setting": "[1]", "result": "100 to 1000", "unit": "nM"}, {"measurement": "IC50", "setting": "[2]", "result": "100 to 1000", "unit": "nM"}, {"measurement": "IC50", "setting": "[3]", "result": "100 to 1000", "unit": "nM"}]}
{"smiles": "COc1c(C(=O)Nc2ccc(NS(=O)(=O)CCN3CCOCC3)cc2)cc(N2CCC(=O)NC2=O)cc1C(C)(C)C", "note": "[IA-L3-1.58, 3-tert-butyl-5-(2,4-dioxotetrahydropyrimidin-1(2H)-yl)-2-methoxy-N-(4-(2-morpholinoethylsulfonamido)phenyl)benzamide]", "values": [{"measurement": "EC50", "setting": "[1]", "result": "100 to 1000", "unit": "nM"}, {"measurement": "IC50", "setting": "[2]", "result": "100 to 1000", "unit": "nM"}, {"measurement": "IC50", "setting": "[3]", "result": "100 to 1000", "unit": "nM"}]}
{"smiles": "CC(C)(C)c1cc(N2CCC(=O)NC2=O)cc(CN2CCCC(CNS(C)(=O)=O)C2)c1O", "note": "(stereo not shown) [IA-L5-1-1.2, N-{1-[3-tert-butyl-5-(2,4-dioxo-tetrahydro-pyrimidin-1-yl)-2-hydroxy-benzyl]-piperidin-3-ylmethyl}-methanesulfonamide]", "values": [{"measurement": "IC50", "setting": "[2]", "result": "> 1000", "unit": "nM"}, {"measurement": "IC50", "setting": "[3]", "result": "> 1000", "unit": "nM"}]}
{"smiles": "CCOC(=O)C1CCCN(Cc2cc(N3CCC(=O)NC3=O)cc(C(C)(C)C)c2O)C1", "note": "(stereo not shown) [IA-L5-1-1.3, 1-[3-tert-butyl-5-(2,4-dioxo-tetrahydro-pyrimidin-1-yl)-2-hydroxy-benzyl]-piperidine-3-carboxylic acid ethyl ester]", "values": [{"measurement": "IC50", "setting": "[2]", "result": "> 1000", "unit": "nM"}, {"measurement": "IC50", "setting": "[3]", "result": "> 1000", "unit": "nM"}]}
{"smiles": "CC1CCCN(Cc2cc(N3CCC(=O)NC3=O)cc(C(C)(C)C)c2O)C1", "note": "(stereo not shown) [IA-L5-1-1.4, 1-[3-tert-butyl-4-hydroxy-5-(3-methyl-piperidin-1-ylmethyl)-phenyl]-dihydro-pyrimidine-2,4-dione; compound with trifluoroacetic acid]", "values": [{"measurement": "IC50", "setting": "[2]", "result": "> 1000", "unit": "nM"}, {"measurement": "IC50", "setting": "[3]", "result": "> 1000", "unit": "nM"}]}
{"smiles": "COC(=O)C1CCN(Cc2cc(N3CCC(=O)NC3=O)cc(C(C)(C)C)c2O)CC1", "note": "[IA-L5-1-1.5, 1-[3-tert-butyl-5-(2,4-dioxo-tetrahydro-pyrimidin-1-yl)-2-hydroxy-benzyl]-piperidine-4-carboxylic acid methyl ester]", "values": [{"measurement": "IC50", "setting": "[2]", "result": "> 1000", "unit": "nM"}, {"measurement": "IC50", "setting": "[3]", "result": "> 1000", "unit": "nM"}]}
{"smiles": "CC(C)(C)c1cc(N2CCC(=O)NC2=O)cc(CN2CCC[C@@H](O)C2)c1O", "note": "[IA-L5-1-1.6, 1-[3-tert-butyl-4-hydroxy-5-((R)-3-hydroxy-piperidin-1-ylmethyl)-phenyl]-dihydro-pyrimidine-2,4-dione; compound with trifluoroacetic acid]", "values": [{"measurement": "IC50", "setting": "[2]", "result": "> 1000", "unit": "nM"}, {"measurement": "IC50", "setting": "[3]", "result": "> 1000", "unit": "nM"}]}
{"smiles": "CCN(CC)C(=O)C1CCCN(Cc2cc(N3CCC(=O)NC3=O)cc(C(C)(C)C)c2O)C1", "note": "(stereo not shown) [IA-L5-1-1.7, 1-[3-tert-butyl-5-(2,4-dioxo-tetrahydro-pyrimidin-1-yl)-2-hydroxy-benzyl]-piperidine-3-carboxylic acid diethylamide, trifluoroacetic acid salt]", "values": [{"measurement": "IC50", "setting": "[2]", "result": "> 1000", "unit": "nM"}, {"measurement": "IC50", "setting": "[3]", "result": "> 1000", "unit": "nM"}]}
{"smiles": "CC(C)(C)c1cc(N2CCC(=O)NC2=O)cc(CN2CCCC(C(N)=O)C2)c1O", "note": "(stereo not shown) [IA-L5-1-1.8, 1-[3-tert-butyl-5-(2,4-dioxo-tetrahydro-pyrimidin-1-yl)-2-hydroxy-benzyl]-piperidine-3-carboxylic acid amide, trifluoroacetic acid salt]", "values": [{"measurement": "IC50", "setting": "[2]", "result": "> 1000", "unit": "nM"}, {"measurement": "IC50", "setting": "[3]", "result": "> 1000", "unit": "nM"}]}
{"smiles": "CC(C)(C)OC(=O)N1CCN(Cc2cc(N3CCC(=O)NC3=O)cc(C(C)(C)C)c2O)CC1", "note": "[IA-L5-1-1.10, 4-[3-tert-butyl-5-(2,4-dioxo-tetrahydro-pyrimidin-1-yl)-2-hydroxy-benzyl]-piperazine-1-carboxylic acid tert-butyl ester]", "values": [{"measurement": "IC50", "setting": "[2]", "result": "> 1000", "unit": "nM"}, {"measurement": "IC50", "setting": "[3]", "result": "> 1000", "unit": "nM"}]}
{"smiles": "CC(C)(C)c1cc(N2CCC(=O)NC2=O)cc(CN2CCC(NS(C)(=O)=O)C2)c1O", "note": "(stereo not shown) [IA-L5-1-1.11, N-{1-[3-tert-butyl-5-(2,4-dioxo-tetrahydro-pyrimidin-1-yl)-2-hydroxy-benzyl]-pyrrolidin-3-yl}-methanesulfonamide]", "values": [{"measurement": "IC50", "setting": "[2]", "result": "> 1000", "unit": "nM"}, {"measurement": "IC50", "setting": "[3]", "result": "> 1000", "unit": "nM"}]}
{"smiles": "CC(C)(C)OC(=O)NC1CCN(Cc2cc(N3CCC(=O)NC3=O)cc(C(C)(C)C)c2O)C1", "note": "(stereo not shown) [IA-L5-1-1.12, {1-[3-tert-butyl-5-(2,4-dioxo-tetrahydro-pyrimidin-1-yl)-2-hydroxy-benzyl]-pyrrolidin-3-yl}-carbamic acid tert-butyl ester]", "values": [{"measurement": "IC50", "setting": "[2]", "result": "> 1000", "unit": "nM"}, {"measurement": "IC50", "setting": "[3]", "result": "> 1000", "unit": "nM"}]}
{"smiles": "CC1CN(Cc2cc(N3CCC(=O)NC3=O)cc(C(C)(C)C)c2O)CC(C)O1", "note": "(stereo not shown) [IA-L5-1-1.13, 1-(3-tert-butyl-5-((2,6-dimethylmorpholino)methyl)-4-hydroxyphenyl)dihydro pyrimidine-2,4(1H,3H)-dione 2,2,2-trifluoroacetate]", "values": [{"measurement": "IC50", "setting": "[2]", "result": "> 1000", "unit": "nM"}, {"measurement": "IC50", "setting": "[3]", "result": "> 1000", "unit": "nM"}]}
{"smiles": "CC(C)(C)c1cc(N2CCC(=O)NC2=O)cc(CN2CCOCC2)c1O", "note": "[IA-L5-1-1.14, 1-(3-tert-butyl-4-hydroxy-5-(morpholinomethyl)phenyl)dihydropyrimidine-2,4(1H,3H)-dione 2,2,2-trifluoroacetate]", "values": [{"measurement": "IC50", "setting": "[2]", "result": "> 1000", "unit": "nM"}, {"measurement": "IC50", "setting": "[3]", "result": "> 1000", "unit": "nM"}]}
{"smiles": "COc1c(Cc2cn(C)c3ccccc23)cc(N2CCC(=O)NC2=O)cc1C(C)(C)C", "note": "[IA-L5-1-2.1, 1-(3-tert-butyl-4-methoxy-5-((1-methyl-1H-indol-3-yl)methyl)phenyl)dihydropyrimidine-2,4(1H,3H)-dione]", "values": [{"measurement": "IC50", "setting": "[2]", "result": "> 1000", "unit": "nM"}, {"measurement": "IC50", "setting": "[3]", "result": "> 1000", "unit": "nM"}]}
{"smiles": "CC(C)(C)c1cc(N2CCC(=O)NC2=O)cc(CN2CCCc3cc(NS(C)(=O)=O)ccc32)c1O", "note": "[IA-L5-1-2.2, N-(1-(3-tert-butyl-5-(2,4-dioxotetrahydropyrimidin-1(2H)-yl)-2-hydroxybenzyl)-1,2,3,4-tetrahydroquinolin-6-yl)methanesulfonamide]", "values": [{"measurement": "IC50", "setting": "[2]", "result": "> 1000", "unit": "nM"}, {"measurement": "IC50", "setting": "[3]", "result": "> 1000", "unit": "nM"}]}
{"smiles": "CCN(Cc1cc(N2CCC(=O)NC2=O)cc(C(C)(C)C)c1O)C1CCCCC1", "note": "[IA-L9-1.1, 1-(3-tert-butyl-5-((cyclohexyl(ethyl)amino)methyl)-4-hydroxyphenyl)dihydropyrimidine-2,4(1H,3H)-dione 2,2,2-trifluoroacetate]", "values": [{"measurement": "IC50", "setting": "[2]", "result": "> 1000", "unit": "nM"}, {"measurement": "IC50", "setting": "[3]", "result": "> 1000", "unit": "nM"}]}
{"smiles": "CN(Cc1cc(N2CCC(=O)NC2=O)cc(C(C)(C)C)c1O)C1CCCCC1", "note": "[IA-L9-1.2, 1-(3-tert-butyl-5-((cyclohexyl(methyl)amino)methyl)-4-hydroxyphenyl)dihydro pyrimidine-2,4(1H,3H)-dione 2,2,2-trifluoroacetate]", "values": [{"measurement": "IC50", "setting": "[2]", "result": "> 1000", "unit": "nM"}, {"measurement": "IC50", "setting": "[3]", "result": "> 1000", "unit": "nM"}]}
{"smiles": "CC(C)(C)c1cc(N2CCC(=O)NC2=O)cc(CNc2ccc(NS(C)(=O)=O)cc2)c1O", "note": "[IA-L9-1.3, N-(4-(3-tert-butyl-5-(2,4-dioxotetrahydropyrimidin-1(2H)-yl)-2-hydroxybenzylamino)phenyl)methanesulfonamide]", "values": [{"measurement": "IC50", "setting": "[2]", "result": "> 1000", "unit": "nM"}, {"measurement": "IC50", "setting": "[3]", "result": "> 1000", "unit": "nM"}]}
